Data on 27 compounds can be found in US6727275B2, “Pyrrolidinone derivatives” (UCB, S.A./N.V., priority 2001, dated 2004).

Some results are limits rather than exact numbers.

Broadly, the IC50 is the point on the concentration scale where inhibition reaches its midpoint.

For this assay, the target named is T1, CCR2 (Homo sapiens, UniProt P41597).
T1 sequence (P41597 1-360 isoform P41597-2): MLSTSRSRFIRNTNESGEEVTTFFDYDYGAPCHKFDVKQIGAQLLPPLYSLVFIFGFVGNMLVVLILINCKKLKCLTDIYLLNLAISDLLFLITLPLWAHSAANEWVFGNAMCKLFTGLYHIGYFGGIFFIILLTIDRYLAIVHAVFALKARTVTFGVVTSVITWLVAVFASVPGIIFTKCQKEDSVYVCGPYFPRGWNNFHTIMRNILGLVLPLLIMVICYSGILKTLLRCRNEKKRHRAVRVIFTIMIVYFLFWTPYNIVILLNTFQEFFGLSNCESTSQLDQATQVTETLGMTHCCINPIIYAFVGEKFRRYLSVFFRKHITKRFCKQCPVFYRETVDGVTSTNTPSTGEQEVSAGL
The assay can be described thus: Binding assay: inhibition of 125I-MCP-1 binding to THP-1 cells. Also noted: CCR2 is also expressed in the human monocytic cell line THP-1; endogenous in cells; host or cells: THP-1 (human monocytic cell line), whole cells. As to conditions: THP-1 cells, 0.1 nM 125I-MCP-1, 1 hr at room temperature; read-out: Inhibition of 125I-MCP-1 binding to THP-1 cells, IC50. The procedure: Antagonism of the CCR2 receptor is determined by a binding assay using the human monocytic cell line THP-1. Cells are suspended in assay buffer (RPMI+1% BSA+25 mM HEPES) at 3×10^6 cells/ml and an aliquot (180 μl) added to a 0.5 ml siliconized Eppendorf tube. […] After incubation for 1 hr at room temperature, the cell suspension is centrifuged through oil and the cell pellets counted to quantitate cell-bound ligand. Nonspecific (NS) binding of radioligand is determined by the addition of 100 nM cold MCP-1. Control binding is determined by the addition of buffer without compound.

In the case of `C=C1CCC(C2C(C(C)=O)=C(O)C(=O)N2c2ccc(Cl)cc2)CC1` (racemic) [Compound 127, 4-acetyl-1-(4-chlorophenyl)-3-hydroxy-5-(4-methylenecyclohexyl)-1,5-dihydro-2H-pyrrol-2-one], the IC50 was ≤ 5 µM.
In the case of `CC(=O)C1=C(O)C(=O)N(c2ccc(C(C)C)cc2)C1C1CCCCC1` (racemic) [Compound 52, 4-acetyl-5-cyclohexyl-3-hydroxy-1-(4-isopropylphenyl)-1,5-dihydro-2H-pyrrol-2-one] it was ≤ 5 µM; in that of `CNC(=O)C1=C(O)C(=O)N(c2ccc(C)cc2)C1C1CCCCC1` (racemic) [Compound 126, 2-cyclohexyl-4-hydroxy-N-methyl-1-(4-methylphenyl)-5-oxo-2,5-dihydro-1H-pyrrole-3-carboxamide], ≤ 5 µM.
For the compound `CC(=O)C1=C(O)C(=O)N(c2ccc(C)c(Cl)c2)C1C1CCCCC1` (racemic) [Compound 59, 4-acetyl-1-(3-chloro-4-methylphenyl)-5-cyclohexyl-3-hydroxy-1,5-dihydro-2H-pyrrol-2-one], the IC50 is ≤ 5 µM.
Under `CC(=O)C1=C(O)C(=O)N(c2ccc(C)cc2)C1C1CCCCCC1` (racemic) [Compound 68, 4-acetyl-5-cycloheptyl-3-hydroxy-1-(4-methylphenyl)-1,5-dihydro-2H-pyrrol-2-one] stands ≤ 5 µM; under `CC(=O)C1=C(O)C(=O)N(c2ccc(F)cc2)C1C1CCCCC1` (racemic) [Compound 25, 4-acetyl-5-cyclohexyl-1-(4-fluorophenyl)-3-hydroxy-1,5-dihydro-2H-pyrrol-2-one], ≤ 5 µM.
Under `CC(=O)C1=C(O)C(=O)N(c2ccc(Cl)cc2)C1C1CC2C=CC1C2` (stereo not drawn) [Compound 121, 4-acetyl-5-bicyclo[2.2.1]hept-5-en-2-yl-1-(4-chlorophenyl)-3-hydroxy-1,5-dihydro-2H-pyrrol-2-one] stands ≤ 5 µM.
On to `CC(=O)C1=C(O)C(=O)N(c2ccc(Cl)cc2)C1CC1CCCC1` (racemic) [Compound 134, 4-acetyl-1-(4-chlorophenyl)-5-(cyclopentylmethyl)-3-hydroxy-1,5-dihydro-2H-pyrrol-2-one], for which the IC50 was ≤ 5 µM.
In the case of `C=C1CCC(C2C(C(C)=O)=C(O)C(=O)N2c2ccc(Cl)cc2F)CC1` (racemic) [Compound 153, 4-acetyl-1-(4-chloro-2-fluorophenyl)-3-hydroxy-5-(4-methylenecyclohexyl)-1,5-dihydro-2H-pyrrol-2-one] it was ≤ 5 µM.
Under `CC(=O)C1=C(O)C(=O)N(c2ccc(C)cc2)C1CC(C)(C)C` (racemic) [Compound 78, 4-acetyl-3-hydroxy-1-(4-methylphenyl)-5-neopentyl-1,5-dihydro-2H-pyrrol-2-one] stands ≤ 5 µM.
`CC(=O)C1=C(O)C(=O)N(c2ccc(Cl)cc2F)[C@@H]1C1CCCC1` [Compound 129, (R)-4-acetyl-1-(4-chloro-2-fluorophenyl)-5-cyclopentyl-3-hydroxy-1,5-dihydro-2H-pyrrol-2-one]: the IC50 is ≤ 5 µM.
Under `CC(=O)C1=C(O)C(=O)N(c2ccc(C)cc2)C1CC(C)C` (racemic) [Compound 40, 4-acetyl-3-hydroxy-5-isobutyl-1-(4-methylphenyl)-1,5-dihydro-2H-pyrrol-2-one] stands ≤ 5 µM; under `CC(=O)C1=C(O)C(=O)N(c2ccc(Cl)s2)C1C1CCCCC1` (racemic) [Compound 170, 4-acetyl-1-(5-chloro-2-thienyl)-5-cyclohexyl-3-hydroxy-1,5-dihydro-2H-pyrrol-2-one], ≤ 5 µM; under `COC1CCC(C2C(C(C)=O)=C(O)C(=O)N2c2ccc(Cl)cc2)CC1` (racemic) [Compound 132, 4-acetyl-1-(4-chlorophenyl)-3-hydroxy-5-(4-methoxycyclohexyl)-1,5-dihydro-2H-pyrrol-2-one], ≤ 5 µM.
Under `CC(=O)C1=C(O)C(=O)N(c2cccc(C)c2)C1C1CCCCC1` (racemic) [Compound 16, 4-acetyl-5-cyclohexyl-3-hydroxy-1-(3-methylphenyl)-1,5-dihydro-2H-pyrrol-2-one] stands ≤ 5 µM; under `CC(=O)C1=C(O)C(=O)N(c2ccc(Cl)c(N)c2)C1C1CCCCC1` (racemic) [Compound 71, 4-acetyl-1-(3-amino-4-chlorophenyl)-5-cyclohexyl-3 hydroxy-1,5-dihydro-2H-pyrrol-2-one], ≤ 5 µM; under `CCCC1C(C(C)=O)=C(O)C(=O)N1c1ccc(C)c(Cl)c1` (racemic) [Compound 76, 4-acetyl-1-(3-chloro-4-methylphenyl)-3-hydroxy-5-propyl-1,5-dihydro-2H-pyrrol-2-one], ≤ 5 µM.
Under `CC(=O)C1=C(O)C(=O)N(c2cccc(Cl)c2)C1C1CCCCC1` (racemic) [Compound 43, 4-acetyl-1-(3-chlorophenyl)-5-cyclohexyl-3-hydroxy-1,5-dihydro-2H-pyrrol-2-one] stands ≤ 5 µM; under `Cc1ccc(N2C(=O)C(O)=C(C(N)=O)C2C2CCCCC2)cc1` (racemic) [Compound 131, 2-cyclohexyl-4-hydroxy-1-(4-methylphenyl)-5-oxo-2,5-dihydro-1H-pyrrole-3-carboxamide], ≤ 5 µM; under `CC(=O)C1=C(O)C(=O)N(c2ccccc2)C1C1CCCCC1` (racemic) [Compound 23, 4-acetyl-5-cyclohexyl-3-hydroxy-1-phenyl-1,5-dihydro-2H-pyrrol-2-one], ≤ 5 µM.
`CC(=O)C1=C(S)C(=O)N(c2ccc(Cl)cc2)C1C1CCCCC1` (racemic) [Compound 157, 4-acetyl-1-(4-chlorophenyl)-5-cyclohexyl-3-mercapto-1,5-dihydro-2H-pyrrol-2-one]: the IC50 is ≤ 5 µM.
Take `CC(=O)C1=C(O)C(=O)N(c2c(F)cc(Br)cc2F)C1C1CCCCC1` (racemic) [Compound 154, 4-acetyl-1-(4-bromo-2,6-difluorophenyl)-5-cyclohexyl-3-hydroxy-1,5-dihydro-2H-pyrrol-2-one]: the IC50 is ≤ 5 µM.
In the case of `CCC(C)C(C)C1C(C(C)=O)=C(O)C(=O)N1c1ccc(C)cc1` (stereo not drawn) [Compound 19, 4-acetyl-5-(1,2-dimethylbutyl)-3-hydroxy-1-(4-methylphenyl)-1,5-dihydro-2H-pyrrol-2-one] it was ≤ 5 µM; in that of `CC(=O)C1=C(O)C(=O)N(c2ccc(Cl)c(C(F)(F)F)c2)C1C1CCCCC1` (racemic) [Compound 55, 4-acetyl-1-[4-chloro-3-(trifluoromethyl)phenyl]-5-cyclohexyl-3-hydroxy-1,5-dihydro-2H-pyrrol-2-one], ≤ 5 µM.
In the case of `CCCC1C(C(C)=O)=C(O)C(=O)N1c1ccc(C)c(C)c1` (racemic) [Compound 74, 4-acetyl-1-(3,4-dimethylphenyl)-3-hydroxy-5-propyl-1,5-dihydro-2H-pyrrol-2-one] it was ≤ 5 µM.
In the case of `CC(=O)C1=C(S)C(=O)N(c2ccc(Cl)cc2F)C1C1CCCCC1` (racemic) [Compound 169, 4-acetyl-1-(4-chloro-2-fluorophenyl)-5-cyclohexyl-3-sulfanyl-1,5-dihydro-2H-pyrrol-2-one] it was ≤ 5 µM; in that of `CC(=O)C1=C(O)C(=O)N(c2ccc(Cl)c(Cl)c2)C1C1CCCCC1` (racemic) [Compound 48, 4-acetyl-5-cyclohexyl-1-(3,4-dichlorophenyl)-3-hydroxy-1,5-dihydro-2H-pyrrol-2-one], ≤ 5 µM.
